Reference: ChEMBL document CHEMBL3407483, “Novel 3-nitrotriazole-based amides and carbinols as bifunctional antichagasic agents” (J Med Chem, 2015)
Active and inactive are the calls of the source. The rule behind the calls is not given here.

Key:
Trypanosoma cruzi [1] = assay: Antitrypanosomal activity against amastigote stage of Trypanosoma cruzi Tulahuen C4 infected in rat L6 cells assessed as parasite growth inhibition after 96 hrs by colorimetric analysis; type: functional, organism-based; settings: Tulahuen C4, L6, 96 h
L6 = assay: Cytotoxicity against rat L6 cells assessed as growth inhibition after 72 hrs by Alamar Blue assay; type: cell-based; settings: L6, 72 h
[2] = tested on: Trypanosoma brucei rhodesiense; assay: Antitrypanosomal activity against trypomastigote stage of Trypanosoma brucei rhodesiense STIB 900 assessed as parasite growth inhibition after 72 hrs by Alamar Blue assay; type: functional, organism-based; settings: STIB 900, 72 h
[3] = Selectivity index, ratio of IC50 for rat L6 cells to IC50 for trypomastigote stage of Trypanosoma brucei rhodesiense STIB 900; type: toxicity, cell-based; settings: read-out: Ratio IC50
[4] = Selectivity index, ratio of IC50 for rat L6 cells to IC50 for amastigote stage of Trypanosoma cruzi Tulahuen C4 infected in rat L6 cells; type: toxicity, cell-based; settings: read-out: Ratio IC50
Trypanosoma cruzi [5] = assay: Antichagasic activity against trypomastigote stage of Trypanosoma cruzi Brazil infected in Balb/c mouse assessed as reduction of parasite index at 15 mg/kg/day, ip measured after 10 days by luciferase reporter gene assay relative to control; type: functional; set-up: scale not given: the % may be the effect or the level left; settings: route intraperitoneal
Trypanosoma cruzi [6] = assay: Antichagasic activity against trypomastigote stage of Trypanosoma cruzi Brazil infected in Balb/c mouse assessed as reduction of parasite level at 15 mg/kg/day, ip measured after 5 days by luciferase reporter gene assay; type: functional, organism-based
Mus musculus [7] = assay: Toxicity in Balb/c mouse at 15 mg/kg/day, ip measured after 5 to 10 days; type: organism-based; set-up: route intraperitoneal; settings: in vivo
[8] = Apparent permeability across apical to basolateral side in human Caco2 cells at 10 uM after 2 hrs by LC/MS/MS analysis; type: ADME, cell-based; settings: caco-2, 2 h
[9] = Metabolic stability in human microsomes assessed as compound remaining at 1 uM after 60 mins by LC/MS/MS analysis in presence of NADPH; type: ADME, Microsome; settings: read-out: Stability
[10] = Metabolic stability in mouse microsomes assessed as compound remaining at 1 uM after 60 mins by LC/MS/MS analysis in presence of NADPH; type: ADME, Microsome; settings: read-out: Stability
[11] = Metabolic stability in human microsomes assessed as compound remaining at 1 uM after 60 mins by LC/MS/MS analysis in absence of NADPH; type: ADME, Microsome; settings: read-out: Stability
[12] = Metabolic stability in mouse microsomes assessed as compound remaining at 1 uM after 60 mins by LC/MS/MS analysis in absence of NADPH; type: ADME, Microsome; settings: read-out: Stability
[13] = tested on: Trypanosoma brucei brucei; assay: Selectivity ratio of IC50 for bloodstream form of Trypanosoma brucei brucei to IC50 for bloodstream form of Trypanosoma brucei brucei overexpressing type-1 nitroreductase; type: functional
Trypanosoma brucei = assay: Activity of his-tagged recombinant Trypanosoma brucei type-1 nitroreductase assessed as oxidized NADH level per mg of protein after 5 mins by absorption spectrum analysis
Trypanosoma cruzi [14] = assay: Activity of his-tagged recombinant Trypanosoma cruzi type-1 nitroreductase assessed as oxidized NADH level per mg of protein after 5 mins by absorption spectrum analysis
[15] = tested on: Trypanosoma brucei brucei; assay: Antitrypanosomal activity against bloodstream form of Trypanosoma brucei brucei overexpressing type-1 nitroreductase; type: functional, organism-based
[16] = tested on: Trypanosoma brucei brucei; assay: Antitrypanosomal activity against bloodstream form of Trypanosoma brucei brucei; type: functional, organism-based
Trypanosoma cruzi [17] = assay: Antichagasic activity against trypomastigote stage of Trypanosoma cruzi Brazil infected in Balb/c mouse assessed as parasite index at 15 mg/kg/day, ip measured after 5 days by luciferase reporter gene assay; type: functional; settings: route intraperitoneal
[18] = biological target: Sterol 14-alpha demethylase (Trypanosoma cruzi (strain CL Brener), UniProt Q7Z1V1); assay: Binding affinity to recombinant full-length Trypanosoma cruzi CYP51 by UV-spectrophotometric analysis; settings: read-out: Kd(app)
Chain of Sterol 14-alpha demethylase (Q7Z1V1 whole entry): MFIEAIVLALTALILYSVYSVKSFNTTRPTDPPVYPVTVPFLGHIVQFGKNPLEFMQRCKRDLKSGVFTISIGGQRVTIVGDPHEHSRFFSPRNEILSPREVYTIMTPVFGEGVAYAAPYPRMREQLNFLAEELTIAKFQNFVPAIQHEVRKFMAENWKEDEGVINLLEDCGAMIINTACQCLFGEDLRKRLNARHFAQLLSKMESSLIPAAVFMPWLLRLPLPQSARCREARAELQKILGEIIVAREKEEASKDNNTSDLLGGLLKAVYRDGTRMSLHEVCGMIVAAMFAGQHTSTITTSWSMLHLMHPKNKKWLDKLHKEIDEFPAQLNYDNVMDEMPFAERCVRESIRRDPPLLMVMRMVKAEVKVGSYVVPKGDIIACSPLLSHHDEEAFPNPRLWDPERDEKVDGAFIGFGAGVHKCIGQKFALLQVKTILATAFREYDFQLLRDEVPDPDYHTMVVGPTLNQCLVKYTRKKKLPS

Trypanosoma cruzi [19] = assay: Antichagasic activity against trypomastigote stage of Trypanosoma cruzi Brazil infected in Balb/c mouse assessed as reduction of parasite index at 13 mg/kg/day, ip measured after 10 days by luciferase reporter gene assay relative to control; type: functional; set-up: scale not given: the % may be the effect or the level left; settings: route intraperitoneal
Trypanosoma cruzi [20] = assay: Antichagasic activity against trypomastigote stage of Trypanosoma cruzi Brazil infected in Balb/c mouse assessed as reduction of parasite level at 13 mg/kg/day, ip measured after 5 days by luciferase reporter gene assay; type: functional, organism-based
Mus musculus [21] = assay: Toxicity in Balb/c mouse at 13 mg/kg/day, ip measured after 5 to 10 days; type: organism-based; set-up: route intraperitoneal; settings: in vivo
Trypanosoma cruzi [22] = assay: Potency index, ratio of benznidazole IC50 to compound IC50 for amastigote stage of Trypanosoma cruzi Tulahuen C4 infected in rat L6 cells; type: functional

Row | Structure (SMILES) | IC50 (Trypanosoma cruzi [1]) [µM] | IC50 (L6) [µM] | IC50 [2] [µM] | selectivity ratio [3] | selectivity ratio [4] | also measured
1 | OC(Cn1cncn1)(Cn1cncn1)c1ccc(F)cc1F [FLUCONAZOLE] | 9.97 | > 294 | – | – | – | –
2 | O=C(Cn1cnc([N+](=O)[O-])n1)Nc1nc(-c2ccc(Cl)cc2)cs1 | 0.102 | 98.8 | 4.06 | 24 | 973 | –
3 | O=C(Cn1cnc([N+](=O)[O-])n1)Nc1nc(-c2ccc(F)c(F)c2)cs1 | 0.459 | 88.1 | 16.1 | – | 192 | –
4 | O=C(Cn1ccnc1[N+](=O)[O-])c1ccc(-c2ccccc2)cc1 | 14.2 | 9.7 | 76.5 | – | – | –
5 | CC1(c2ccc(-n3ccnc3)cc2)CO1 (centres undefined) | 188 | 277 | 76.2 | – | – | –
6 | N#Cc1ccc(-c2ccc(NC(=O)Cn3cnc([N+](=O)[O-])n3)cc2)cc1 | 0.138 | 165 | 0.336 | 490 | 1190 | Activity (Trypanosoma cruzi [5]): <4%; Activity (Trypanosoma cruzi [6]): Active; Activity (Mus musculus [7]): Non-toxic; Papp [8]: 18.7 ×10⁻⁶ cm/s; remaining at 1 h, 1 µM [9]: 96.8%; remaining at 1 h, 1 µM [10]: 79.4%; remaining at 1 h, 1 µM [11]: 84.8%; remaining at 1 h, 1 µM [12]: 110%; Ratio IC50 [13]: 2; Activity (Trypanosoma brucei): 3170 nmol/min; Activity (Trypanosoma cruzi [14]): 888 nmol/min; IC50 [15]: 0.36 µM; IC50 [16]: 0.84 µM
7 | O=C(Cn1ccnc1[N+](=O)[O-])NCc1ccccc1 [BENZNIDAZOLE] | – | – | – | – | – | Activity (Trypanosoma cruzi [5]): <4%; Activity (Trypanosoma cruzi [17]): 13.38; Activity (Mus musculus [7]): Non-toxic; Activity (Trypanosoma brucei): 1540 nmol/min; Activity (Trypanosoma cruzi [14]): 680 nmol/min
8 | CC(O)(Cn1cncn1)c1ccc(-n2ccnc2)cc1 (centres undefined) | 157 | > 372 | 153 | – | – | –
9 | O=C(Cn1cnc([N+](=O)[O-])n1)c1ccc(-c2ccccc2)cc1 | 0.188 | 220 | 1.75 | 125 | 1160 | –
10 | O=C(Cn1cnc([N+](=O)[O-])n1)Nc1nnc(-c2ccc(Cl)cc2)s1 | 16.6 | > 274 | 73.9 | – | > 16.5 | –
11 | Cc1ccc(S(=O)(=O)NC(Cc2ccccc2)Cn2cnc([N+](=O)[O-])n2)cc1 (centres undefined) | 0.339 | 145 | 11.6 | – | 428 | –
12 | Cc1nc(-c2cccc(NC(=O)Cn3cnc([N+](=O)[O-])n3)c2)cs1 | 0.552 | 67.3 | 7.04 | 10 | 122 | –
13 | O=C(Cn1cnc([N+](=O)[O-])n1)Nc1ccc(N2CCCCC2)cc1 | 0.554 | 103 | 17 | – | 186 | –
14 | Fc1ccc(C2(Cn3cncn3)Cn3ccnc3O2)c(F)c1 (centres undefined) | 5.79 | > 286 | 221 | – | > 49.4 | –
15 | CC(O)(Cn1cnc([N+](=O)[O-])n1)c1ccc(-c2ccccc2)cc1 (centres undefined) | 0.102 | 86 | 1.09 | 78.9 | 844 | –
16 | O=[N+]([O-])c1ncn(CC(O)(Cn2cncn2)c2ccc(F)cc2F)n1 (centres undefined) | 1.17 | 258 | 26.6 | – | 220 | Activity (Trypanosoma cruzi [5]): <4%; Activity (Trypanosoma cruzi [17]): 24.9; Activity (Mus musculus [7]): Non-toxic; Activity (Trypanosoma brucei): 3060 nmol/min; Activity (Trypanosoma cruzi [14]): 1180 nmol/min; Kd [18]: 0.606 µM
17 | CC(O)(Cn1cncn1)c1ccc(-c2ccccc2)cc1 (centres undefined) | 0.706 | 114 | 65.6 | 1.74 | 162 | –
18 | O=C(Cn1ccnc1[N+](=O)[O-])Nc1nc(-c2ccc(F)c(F)c2)cs1 | 3.99 | 62.1 | 10 | – | 15.6 | –
19 | O=C(Cn1cnc([N+](=O)[O-])n1)c1ccc(F)cc1F | 1.19 | 246 | 34.1 | – | 206 | –
20 | O=C(Cn1cnc([N+](=O)[O-])n1)Nc1ccc(-c2ccc(Cl)cc2)cc1 | 0.045 | 126 | 0.901 | 140 | 2800 | Activity (Trypanosoma cruzi [19]): <4%; Activity (Trypanosoma cruzi [20]): Active; Activity (Mus musculus [21]): Non-toxic; Ratio IC50 (Trypanosoma cruzi [22]): 45
21 | O=C(Cn1cncn1)c1ccc(-c2ccccc2)cc1 | 22.8 | 113 | 51.7 | – | 4.9 | –
22 | O=[N+]([O-])c1ncn(CC(O)(Cn2cncn2)c2ccc(-c3ccccc3)cc2)n1 (centres undefined) | 0.033 | 127 | 2.88 | 44 | 3810 | Activity (Trypanosoma cruzi [5]): <4%; Activity (Trypanosoma cruzi [17]): 42.04; Activity (Mus musculus [7]): Non-toxic; Papp [8]: 16.5 ×10⁻⁶ cm/s; remaining at 1 h, 1 µM [9]: 90.7%; remaining at 1 h, 1 µM [10]: 77.6%; remaining at 1 h, 1 µM [11]: 106%; remaining at 1 h, 1 µM [12]: 102%; Ratio IC50 (Trypanosoma cruzi [22]): 68; Activity (Trypanosoma brucei): 2680 nmol/min; Activity (Trypanosoma cruzi [14]): 1160 nmol/min; Kd [18]: 0.023 µM
23 | CC(O)(Cn1cnc([N+](=O)[O-])n1)c1ccc(-n2ccnc2)cc1 (centres undefined) | 3.29 | > 318 | 1.84 | > 173 | > 97 | Activity (Trypanosoma brucei): 3460 nmol/min; Activity (Trypanosoma cruzi [14]): 1070 nmol/min
